The values below come from patent US10723741B1, “DNA polymerase IIIC inhibitors and use thereof” (Acurx Pharmaceuticals, LLC, priority 2018, dated 2020).

Converted amounts (≈) assume the structure as drawn. Like-named read-outs stand apart in the source and are kept apart here.

Common to all, as to format: cell-based
In assay [1] the test system is Staphylococcus aureus ATCC 29213 (MSSA). The assay can be described thus: Broth microdilution MIC, S. aureus ATCC 29213 (MSSA). The conditions noted are these: read-out: MIC S. aureus ATCC 29213 (MSSA). The method in brief: (§1)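 Two-fold dilutions from 64 to 0.0625 μg/ml final, 1% DMSO, were inoculated at ~5.0×10^5 cfu/ml in the strain's test medium and kept 20 h at 37 °C in ambient atmosphere. Colonies were grown on MHA, with S. pneumoniae on blood agar under 5% CO2.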

The test system of assay [2] is Staphylococcus aureus NRS384 (MRSA). The assay can be described thus: Broth microdilution MIC, S. aureus NRS384 (MRSA). More on the design: MIC NRS 384 (MRSA): unit not given here. The note with it: for MIC: Staphylococcus aureus, read-out: MIC NRS 384 (MRSA). The method in brief:
as §1
(In general: Dilution methods test growth across graded concentrations, often in twofold steps.)

Assay [3] relates to Enterococcus faecalis ATCC 29212. Kind of assay: Broth microdilution MIC, E. faecalis ATCC 29212. The note with it: read-out: MIC E. faecalis ATCC 29212. In short, it runs like this:
as §1

In assay [4] the test system is Escherichia coli ATCC 25922. Kind of assay: Broth microdilution MIC, E. coli ATCC 25922 (MHIIB w & w/o 4 mM EDTA). The conditions noted are these: for MIC: Escherichia coli, read-out: MIC E. coli ATCC 25922; for MIC E. coli ATCC 25922 + 4 mM EDTA: with 4 mM EDTA. The method in brief: as §1
Assay [5] relates to Streptococcus pneumoniae ATCC 49619. Kind of assay: Broth microdilution MIC, S. pneumoniae ATCC 49619. The conditions noted are these: read-out: MIC S. pneumoniae ATCC 49619. In short, it runs like this:
as §1

The test system of assay [6] is Bacillus subtilis ATCC 6633. Kind of assay: Broth microdilution MIC, B. subtilis ATCC 6633. The note with it: read-out: MIC B. subtilis ATCC 6633. In short, it runs like this:
as §1

For assay [7], the system named is Enterococcus faecium ATCC 700221 (VRE). The assay can be described thus: Broth microdilution MIC, E. faecium ATCC 700221 (VRE). More on the design: MIC E. faecium ATCC 700221 (VRE): unit: ug/mL. The note with it: for MIC: Enterococcus faecium, read-out: MIC E. faecium ATCC 700221 (VRE). The method in brief: as §1
Setting [8] is: broth microdilution, 37° C., 20 hours.
[9] abbreviates: ATCC29212, broth microdilution, 37° C., 20 hours.
The mark [10] stands for this setting: ATCC25922, without EDTA, broth microdilution, 37° C., 20 hours.
Setting [11] is: ATCC49619, broth microdilution, 37° C., 20 hours.
[12] abbreviates: ATCC6633, broth microdilution, 37° C., 20 hours.

For `O=c1[nH]c(NCc2ccc(Cl)c(Cl)c2)nc2cnn(CCCc3nnn[nH]3)c12` [Compound 221, 1-(3-(1H-tetrazol-5-yl)propyl)-5-((3,4-dichlorobenzyl)amino)-1H-pyrazolo[4,3-d]pyrimidin-7(6H)-one], the MIC in assay [1] (setting [8]) is above 64 µg/mL; in assay [2] (setting [8]) it was above 64 µg/mL; in assay [3] (setting [9]), above 64 µg/mL; in assay [4] (setting [10]), above 64 µg/mL; in assay [5] (setting [11]) it was 64 µg/mL (≈ 152 µM); in assay [6] (setting [12]) it was above 64 µg/mL. In assay [7] (setting [8]), the MIC was found to be 32 µg/mL (≈ 76.1 µM). Moreover, the “MIC E. coli ATCC 25922 + 4 mM EDTA” value in assay [4] (setting [8]) was above 64 µg/mL.
Regarding `Cl.Cl.O=c1[nH]c(NCc2ccc(Cl)c(Cl)c2)nc2cnn(C3CCN(Cc4ccncc4)CC3)c12` [Compound 246, 5-((3,4-Dichlorobenzyl)amino)-1-(1-(pyridin-4-ylmethyl)piperidin-4-yl)-1H-pyrazolo[4,3-d]pyrimidin-7(6H)-one dihydrochloride], the MIC in assay [1] (setting [8]) was 2 µg/mL; in assay [2] (setting [8]) it was 2 µg/mL; in assay [3] (setting [9]), 4 µg/mL; in assay [4] (setting [10]), above 64 µg/mL; in assay [5] (setting [11]) it was 4 µg/mL; in assay [6] (setting [12]), 1 µg/mL. The MIC in assay [7] (setting [8]) worked out at 2 µg/mL. For the same compound, the “MIC E. coli ATCC 25922 + 4 mM EDTA” value in assay [4] (setting [8]) is above 64 µg/mL.
With `CC(C)(C)NS(=O)(=O)CCn1ncc2nc(NCc3ccc(Cl)c(Cl)c3)[nH]c(=O)c21` [Compound 238, N-(tert-butyl)-2-(5-((3,4-dichlorobenzyl)amino)-7-oxo-6,7-dihydro-1H-pyrazolo[4,3-d]pyrimidin-1-yl)ethanesulfonamide], the MIC in assay [1] (setting [8]) is 8 µg/mL (≈ 16.9 µM); in assay [2] (setting [8]), 4 µg/mL (≈ 8.45 µM); in assay [3] (setting [9]) it was 8 µg/mL (≈ 16.9 µM); in assay [4] (setting [10]) it was above 64 µg/mL; in assay [5] (setting [11]) it was 8 µg/mL (≈ 16.9 µM); in assay [6] (setting [12]), 4 µg/mL (≈ 8.45 µM). In addition, in assay [7] (setting [8]), the MIC is 2 µg/mL (≈ 4.22 µM). Further, the “MIC E. coli ATCC 25922 + 4 mM EDTA” value in assay [4] (setting [8]) is above 64 µg/mL.
Consider `CC(C)(C)OC(=O)N1C[C@H](O)C[C@H]1C(=O)N1CCC(n2ncc3nc(NCc4ccc(Cl)c(Cl)c4)[nH]c(=O)c32)CC1` [Compound 275, (2S,4R)-tert-Butyl 2-(4-(5-((3,4-dichlorobenzyl)amino)-7-oxo-6,7-dihydro-1H-pyrazolo[4,3-d]pyrimidin-1-yl)piperidine-1-carbonyl)-4-hydroxypyrrolidine-1-carboxylate], for which the MIC is 32 µg/mL (≈ 52.8 µM) in assay [1] (20 h); 32 µg/mL (≈ 52.8 µM) in assay [2] (20 h); 16 µg/mL (≈ 26.4 µM) in assay [3] (ATCC29212, 20 h); above 64 µg/mL in assay [4] (ATCC25922, 20 h); 8 µg/mL (≈ 13.2 µM) in assay [5] (ATCC49619, 20 h); 8 µg/mL (≈ 13.2 µM) in assay [6] (ATCC6633, 20 h). Further, in assay [7] (20 h), the MIC is 8 µg/mL (≈ 13.2 µM). The “MIC E. coli ATCC 25922 + 4 mM EDTA” value in assay [4] (setting [8]) is above 64 µg/mL.
On to `COCCOC/C=C/Cn1ncc2nc(NCc3ccc(Cl)c(Cl)c3)[nH]c(=O)c21` [Compound 193, (E)-5-((3,4-dichlorobenzyl)amino)-1-(4-(2-methoxyethoxy)but-2-en-1-yl)-1H-pyrazolo[4,3-d]pyrimidin-7(6H)-one], for which the MIC in assay [1] (setting [8]) was 4 µg/mL (≈ 9.13 µM); in assay [2] (setting [8]) it was 4 µg/mL (≈ 9.13 µM); in assay [3] (setting [9]), 8 µg/mL (≈ 18.3 µM); in assay [4] (setting [10]), above 64 µg/mL; in assay [5] (setting [11]), 4 µg/mL (≈ 9.13 µM); in assay [6] (setting [12]), 1 µg/mL (≈ 2.28 µM). The MIC in assay [7] (setting [8]) turned out to be 4 µg/mL (≈ 9.13 µM). The “MIC E. coli ATCC 25922 + 4 mM EDTA” value in assay [4] (setting [8]) was above 64 µg/mL.
On to `Cn1ccnc1Cn1ncc2nc(NCc3ccc(Cl)c(Cl)c3)[nH]c(=O)c21` [Compound 97, 5-((3,4-Dichlorobenzyl)amino)-1-((1-methyl-1H-imidazol-2-yl)methyl)-1H-pyrazolo[4,3-d]pyrimidin-7(6H)-one], for which the MIC in assay [1] (setting [8]) was 8 µg/mL (≈ 19.8 µM); in assay [2] (setting [8]) it was 8 µg/mL (≈ 19.8 µM); in assay [3] (setting [9]), above 64 µg/mL; in assay [4] (setting [10]), above 64 µg/mL; in assay [5] (setting [11]) it was 4 µg/mL (≈ 9.89 µM); in assay [6] (setting [12]) it was 8 µg/mL (≈ 19.8 µM). Moreover, in assay [7] (setting [8]), the MIC worked out at 8 µg/mL (≈ 19.8 µM). Besides, the “MIC E. coli ATCC 25922 + 4 mM EDTA” value in assay [4] (setting [8]) was above 64 µg/mL.
For `Cl.O=C(c1ncc[nH]1)N1CCC(n2ncc3nc(NCc4ccc(Cl)c(Cl)c4)[nH]c(=O)c32)CC1` [Compound 269, 1-(1-(1H-imidazole-2-carbonyl)piperidin-4-yl)-5-((3,4-dichlorobenzyl)amino)-1H-pyrazolo[4,3-d]pyrimidin-7(6H)-one hydrochloride], the MIC in assay [1] (setting [8]) was 4 µg/mL; in assay [2] (setting [8]), 4 µg/mL; in assay [3] (setting [9]), 4 µg/mL; in assay [4] (setting [10]), above 64 µg/mL; in assay [5] (setting [11]), 4 µg/mL; in assay [6] (setting [12]) it was 1 µg/mL. In addition, the MIC in assay [7] (setting [8]) was 2 µg/mL. For the same compound, the “MIC E. coli ATCC 25922 + 4 mM EDTA” value in assay [4] (setting [8]) is above 64 µg/mL.
For `Cn1ncc2nc(NCc3c(Cl)cccc3Cl)[nH]c(=O)c21` [Compound 30, 5-((2,6-Dichlorobenzyl)amino)-1-methyl-1H-pyrazolo[4,3-d]pyrimidin-7(6H)-one], the MIC in assay [1] (setting [8]), in assay [2] (setting [8]), in assay [3] (setting [9]), in assay [4] (setting [10]), in assay [5] (setting [11]) and in assay [6] (setting [12]) was above 64 µg/mL each time. The MIC in assay [7] (setting [8]) is above 64 µg/mL. In addition, the “MIC E. coli ATCC 25922 + 4 mM EDTA” value in assay [4] (setting [8]) was above 64 µg/mL.
For the compound `O=c1[nH]c(NCc2ccc(Cl)c(Cl)c2)nc2c(Br)nn(CCOCCO)c12` [Compound 52, 3-bromo-5-((3,4-dichlorobenzyl)amino)-1-(2-(2-hydroxyethoxy)ethyl)-1H-pyrazolo[4,3-d]pyrimidin-7(6H)-one], the MIC in assay [1] (setting [8]) was 2 µg/mL (≈ 4.19 µM); in assay [2] (setting [8]) it was 4 µg/mL (≈ 8.38 µM); in assay [3] (setting [9]), 4 µg/mL (≈ 8.38 µM); in assay [4] (setting [10]), above 64 µg/mL; in assay [5] (setting [11]) it was 16 µg/mL (≈ 33.5 µM); in assay [6] (setting [12]), 1 µg/mL (≈ 2.1 µM). Moreover, the MIC in assay [7] (setting [8]) stood at 2 µg/mL (≈ 4.19 µM). Also, the “MIC E. coli ATCC 25922 + 4 mM EDTA” value in assay [4] (setting [8]) was above 64 µg/mL.
`Cl.O=c1[nH]c(NCc2ccc(Cl)c(Cl)c2)nc2cnn(Cc3cnccn3)c12` [Compound 112, 5-((3,4-Dichlorobenzyl)amino)-1-(pyrazin-2-ylmethyl)-1H-pyrazolo[4,3-d]pyrimidin-7(6H)-one hydrochloride]: the minimal inhibitory concentration (MIC) was 4 µg/mL in assay [1] (setting [8]); 8 µg/mL in assay [3] (setting [9]); above 64 µg/mL in assay [4] (setting [10]); 4 µg/mL in assay [5] (setting [11]); 1 µg/mL in assay [6] (setting [12]). Also, the “MIC NRS 384 (MRSA)” value in assay [2] (setting [8]) is 4/4. The “MIC E. coli ATCC 25922 + 4 mM EDTA” value in assay [4] (setting [8]) is above 64 µg/mL. For the same compound, in assay [7] (setting [8]), the “MIC E. faecium ATCC 700221 (VRE)” value was 2/2.
As for `C[Si](C)(C)CCOCNC(=O)Cn1ncc2nc(NCc3ccc(Cl)c(Cl)c3)[nH]c(=O)c21` [Compound 197, 2-(5-((3,4-dichlorobenzyl)amino)-7-oxo-6,7-dihydro-1H-pyrazolo[4,3-d]pyrimidin-1-yl)-N-((2-(trimethylsilyl)ethoxy)methyl)acetamide], the MIC in assay [1] (setting [8]), in assay [2] (setting [8]), in assay [3] (setting [9]), in assay [4] (setting [10]), in assay [5] (setting [11]) and in assay [6] (setting [12]) was above 64 µg/mL in each case. Moreover, the MIC in assay [7] (setting [8]) was above 64 µg/mL. In addition, in assay [4] (setting [8]), the “MIC E. coli ATCC 25922 + 4 mM EDTA” value is above 64 µg/mL.
Turning to `O=C(CO)Cn1ncc2nc(NCc3ccc(Cl)c(Cl)c3)[nH]c(=O)c21` [Compound 290, 5-((3,4-dichlorobenzyl)amino)-1-(3-hydroxy-2-oxopropyl)-1H-pyrazolo[4,3-d]pyrimidin-7(6H)-one], the MIC in assay [1] (setting [8]) is 32 µg/mL (≈ 83.7 µM); in assay [2] (setting [8]), 16 µg/mL (≈ 41.9 µM); in assay [3] (setting [9]), 16 µg/mL (≈ 41.9 µM); in assay [4] (setting [10]) it was above 64 µg/mL; in assay [5] (setting [11]) it was 16 µg/mL (≈ 41.9 µM); in assay [6] (setting [12]), 8 µg/mL (≈ 20.9 µM). Besides, the MIC in assay [7] (setting [8]) turned out to be 8 µg/mL (≈ 20.9 µM). In assay [4] (setting [8]), the “MIC E. coli ATCC 25922 + 4 mM EDTA” value is above 64 µg/mL.

By MIC is commonly meant the lowest concentration that inhibits growth of the organism.
